Series [1] can be described thus: MTT cell viability assay, HepG2 cells. It is filed as cell-based. The settings on record: human, read-out: HepG2 Cytotoxicity CC50. The protocol:
In order to assess the cytotoxicity of the compounds, an MTT cell viability assay was performed in either unstimulated THP-1 or HepG2 cells as follows. 5×10^4 THP-1 or 5×10^3 HepG2 cells were seeded into each well of a 96-well plate in 90 μL of media. Compounds were added to cells as described for the IL-10 assay and returned to the incubator for an additional 72 hours. Next, 25 μL of MTT solution (5 mg/mL in sterile PBS) was added to each well. Plates were incubated for 3 hours at 37° C., 5% CO2. Next, for THP-1 cells, 100 μl of MTT solubilization solution (40% Dimethylformamide, 2% glacial acetic acid, 16% sodium dodecyl sulfate) was then added to each well and plates were incubated at room temperature in the dark overnight. For HepG2 cells, media was aspirated, 50 μL of DMSO was added and plates were mixed briefly with an orbital plate shaker. Absorbance at 570 nm was measured using a Perkin-Elmer EnVision plate reader.
Absorbance values were converted to percentage of vehicle-treated controls. Data was then analyzed using a non-linear regression (variable slope (four-parameter)) equation in GraphPad Prism 7.0. […]

A short description of series [2]: MTT cell viability assay, THP-1 cells. In kind it is cell-based. Conditions: human, unstimulated THP-1 cells, read-out: THP-1 Cytotoxicity CC50. In outline: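 Unstimulated THP-1 (5×10^4/well) or HepG2 (5×10^3/well) cells exposed to compound for 72 h, then MTT 3 h at 37 °C. Formazan solubilised overnight in DMF/acetic acid/SDS (THP-1) or in DMSO (HepG2); absorbance 570 nm. CC50 by four-parameter fit of percent vehicle control.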
A general note: Formazan colour is commonly taken as a measure of viable cells.

In series [3] the test system is IL-1β. Briefly: IL-1β inhibition assay (ELISA/HTRF of culture supernatants). It is filed as cell-based. The settings on record: Homo sapiens, PMA-differentiated THP-1 cells, tested 10 μM to 0.003 μM. Put shortly:
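PMA-differentiated THP-1 cells treated at final compound concentrations of 10 μM to 0.003 μM; supernatant IL-1β quantified by Quantikine ELISA or HTRF. Background-subtracted values expressed as % of vehicle controls; EC50 from four-parameter variable-slope nonlinear regression.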
In general terms: In an ELISA, binding on a coated surface is turned into a signal by an enzyme label.

The target of series [4] is T1, IL-1 (Homo sapiens, UniProt P01584).
T1 construct: host or cells: patients (in vivo)
Conditions: cited from earlier work.

Regarding `O=C(Nc1c2c(cc3c1CCC3)CCC2)NS(=O)(=O)c1ccc2c(c1)C(O)OB2O` (centres unmarked) [Example 54, N-((1,2,3,5,6,7-hexahydro-s-indacen-4-yl)carbamoyl)-1,3-dihydroxy-1,3-dihydrobenzo[c][1,2]oxaborole-5-sulfonamide], the CC50 at 72 h in series [1] and in series [2] was over 10 µM throughout. This compound also yielded an EC50 in series [3] of over 10 µM.

Turning to `COc1cc(-c2ccc3c(c2NC(=O)NS(=O)(=O)c2ccc4c(c2)C(C)OB4O)CCC3)ccn1` (centres unmarked) [Example 55, 1-hydroxy-N-((5-(2-methoxypyridin-4-yl)-2,3-dihydro-1H-inden-4-yl)carbamoyl)-3-methyl-1,3-dihydrobenzo[c][1,2]oxaborole-5-sulfonamide], the CC50 at 72 h in series [1] and in series [2] was over 10 µM throughout. Also, in series [3], the EC50 is under 1 µM.

For `CC(C)c1cc(C#N)c(F)c(C(C)C)c1NC(=O)NS(=O)(=O)c1ccc2c(c1)C(C)OB2O` (centres unmarked) [Example 56, N-((4-cyano-3-fluoro-2,6-diisopropylphenyl)carbamoyl)-1-hydroxy-3-methyl-1,3-dihydrobenzo[c][1,2]oxaborole-5-sulfonamide], the 50% cytotoxic concentration (CC50) at 72 h in series [1] and in series [2] was over 10 µM each time. In addition, in series [3], the EC50 lay within 1 to 10 µM.

For `CC1(C)OB(O)c2ccc(S(=O)(=O)NC(=O)Nc3c4c(cc5c3CCC5)CCC4)cc21` [Example 57, N-((1,2,3,5,6,7-hexahydro-s-indacen-4-yl)carbamoyl)-1-hydroxy-3,3-dimethyl-1,3-dihydrobenzo[c][1,2]oxaborole-5-sulfonamide], the CC50 at 72 h in series [1] and in series [2] was over 10 µM each time. The EC50 in series [3] was in the range of 1 to 10 µM.

Turning to `CC(CCB1O[C@@H]2C[C@@H]3C[C@@H](C3(C)C)[C@]2(C)O1)n1ccc(S(=O)(=O)NC(=O)Nc2c3c(cc4c2CCC4)CCC3)n1` (stereo partly drawn) [Example 60, N-((1,2,3,5,6,7-hexahydro-s-indacen-4-yl)carbamoyl)-1-(4-((3aS,4S,6S,7aR)-3a,5,5-trimethylhexahydro-4,6-methanobenzo[d][1,3,2]dioxaborol-2-yl)butan-2-yl)-1H-pyrazole-3-sulfonamide], the 50% cytotoxic concentration (CC50) at 72 h in series [1] and in series [2] was over 10 µM throughout. In addition, the EC50 in series [3] lay within 1 to 10 µM.

For the compound `CC(CCn1ccc(S(=O)(=O)NC(=O)Nc2c3c(cc4c2CCC4)CCC3)n1)CB1OC(C)(C)C(C)(C)O1` (centres unmarked) [Example 61, N-((1,2,3,5,6,7-hexahydro-s-indacen-4-yl)carbamoyl)-1-(3-methyl-4-(4,4,5,5-tetramethyl-1,3,2-dioxaborolan-2-yl)butyl)-1H-pyrazole-3-sulfonamide], the CC50 at 72 h in series [1] and in series [2] was over 10 µM in each case. The compound also had an EC50 in series [3] of under 1 µM.

Regarding `CC(C)(CCn1ccc(S(=O)(=O)NC(=O)Nc2c3c(cc4c2CCC4)CCC3)n1)B1OC(C)(C)C(C)(C)O1` [Example 62, N-((1,2,3,5,6,7-hexahydro-s-indacen-4-yl)carbamoyl)-1-(3-methyl-3-(4,4,5,5-tetramethyl-1,3,2-dioxaborolan-2-yl)butyl)-1H-pyrazole-3-sulfonamide], the half-maximal cytotoxic concentration (CC50) at 72 h in series [1] and in series [2] was over 10 µM each time. In addition, in series [3], the EC50 was under 1 µM.

Take “canakinumab: the neutralizing IL-10 antibody canakinumab (anti-IL-1, Novartis)”: in series [4] (CANTOS trial), the “incidence of fatal infection” value was “higher incidence of fatal infection”. Besides, the “reduction in total cancer mortality (mostly lung cancer) compared to placebo” value in series [4] (high-dose) is over 50%.

By CC50 is commonly meant the concentration at which the toxic effect on the cells reaches its halfway point. One may read the EC50 as the concentration at which the effect is half-maximal. A higher EC50 goes with weaker potency.

Source of the values: patent publication US20240018166A1, “SULFONYL UREA NLRP3 INFLAMMASOME INHIBITORS” (Venatorx Pharmaceuticals, Inc., priority 2020, published 2024).
